Results from patent US20120196918A1, “PREVENTING ISLET INFLAMMATION AND DYSFUNCTION AND MAINTAINING PROPER GLUCOSE LEVELS BY CONTROLLING eIF5A AND ITS HYPUSINATION” (priority 2009, published 2012).

How the values were obtained:
[1] = system: STZ-treated C57BL/6J mice; test: Multiple low-dose streptozotocin (STZ) diabetes model in C57BL/6J mice; format: in vivo, mouse
Procedure: To test the role of eIF5A in cytokine-mediated islet dysfunction, efforts were made to identify a mouse model of islet inflammation. The multiple low dose streptozotocin (STZ) model, in which mice are subjected to five daily intraperitoneal doses (at 55 mg/kg body weight) of STZ, is considered to provoke local islet inflammation and cytokine release, in part through the recruitment of CD11c+ dendritic cells that release pro-inflammatory cytokines in the area of STZ-induced cellular destruction (27 and 28).
C57BL/6J mice were injected intraperitoneally with either stabilized siRNA against eIF5A (si-eIF5A) or control siRNA (si-Control) daily for three days, then subjected to the multiple low-dose STZ protocol (see schematic in FIG. 1a). […] The effect of administering si-eIF5A on islet viability following STZ treatment was determined by performing immunohistochemical analysis of the pancreata of mice. […] To quantify the differences in islet mass between STZ-treated and untreated animals, morphometry of insulin-stained pancreatic sections was performed.
Based on the observed data, if hypusination of eIF5A by DHS is required for cytokine responsiveness in islets, then inhibition of DHS in vivo should protect against low dose STZ diabetes. To test this, C57BL/6J mice were treated with GC7 or vehicle and then subjected to low dose STZ injections. GC7 was delivered in one of two different ways: either by daily bolus intraperitoneal injections (4 mg/kg/day) or by continuous subcutaneous delivery (40 μg/kg/h) using implanted osmotic pumps. A protocol similar to that shown in FIG. 1A was employed in these studies, with GC7 injections or pump implants starting 3 days prior to STZ injections.
Small interfering RNA (siRNA) studies: Stabilized siRNAs for intraperitoneal injections were custom synthesized by Dharmacon using the siSTABLE® modification. Groups of 10 week-old C57BL/6J male mice (from Jackson Labs) received daily intraperitoneal injections of 1.6 mg/kg siRNA prepared in 0.9% saline or vehicle alone (0.9% saline) for 3 days. For in vitro studies, islets from each group of injected mice were harvested on the fourth day and pooled prior to analysis. Injections with each siRNA were performed on at least 3 different occasions. siRNA sequences were as follows: siControl, 5′-[…]-3′; si-eIF5A, 5′-[…]-3′. For siRNA studies in the rat β cell-derived line INS-1 (832/13), cells were transfected with a SMART Pool® siRNA against rat eIF5A1 (Dharmacon, #L-083855-01) or non-targeting control siRNA #1 (Dharmacon) using DharmaFECT® transfection reagent (Dharmacon).
Immunostaining and morphometric assessment of β cell mass: Immunostaining of pancreatic sections proceeded as described previously (72). For assessment of islet cell death in pancreatic sections, the technique of terminal deoxynucleotidyl transferase dUTP nick end labeling (TUNEL) was performed using biotinylated 16-dUTP (Roche) and Texas Red Neutravidin (Invitrogen). Digital images of each islet at 40× magnification were acquired using an Axio-Observer D1 microscope (Zeiss) inverted fluorescent microscope equipped with a high-resolution color camera. TUNEL-positive/insulin-positive nuclei were counted manually by an observer blinded to sample identity, and data were re-coded as the average number of TUNEL-positive nuclei per islet. β cell mass was calculated as described previously (73), but with some modifications. Briefly, pancreata from 3 mice per treatment group were rapidly dissected and weighed, fixed in 4% paraformaldehyde, paraffin-embedded, and longitudinally sectioned. Three sections/pancreas (approx. 75 μm apart) were subsequently immunostained for insulin and counterstained with hematoxylin as described (74), and digital images of each section at 10× magnification were acquired on an Axio-Observer Z1 microscope (Zeiss) fitted with an AxioCam high resolution color camera. […]

Nos2 mRNA = test: Nos2 transcript levels in INS-1 cells (quantitative RT-PCR); format: cell-based, rat; conditions: 125 μM GC7, cytokines
Description: eIF5A1 and eIF5A2 are the only proteins known to contain the unique amino acid hypusine at position 50. Hypusine is formed as a posttranslational modification of residue Lys50 in a reaction requiring spermidine and catalyzed by the sequential actions of the enzymes deoxyhypusine synthase (DHS) and deoxyhypusine hydroxylase (DOHH) (Chen, K Y, and Liu, A Y. Biochemistry and function of hypusine formation on eukaryotic initiation factor 5A. Biol Signals. 1997; 6(3):105-109). […] To further investigate the mechanism of eIF5A-regulated translation of Nos2, studies were performed following overnight incubation of cells with mimosine (an inhibitor of DOHH) and GC7 (an inhibitor of DHS). […] Similar data using GC7 were obtained in primary mouse islets (data not shown) and in human islets (FIGS. 5F and 5G). […]
Quantitative RT-PCR: Five micrograms of total RNA from islets or INS-1 cells were reverse-transcribed as detailed previously (77). cDNA was subjected to quantitative PCR using SYBR Green-based technology and published primers for mouse Ins1/2 pre-mRNA (78) and QuantiTech® primers (Qiagen) for all other mouse genes. […] All samples were corrected for total input RNA as quantitated by an Experion® (Bio-Rad) bioanalyzer. […]

| Compound | average fasting blood glucose ([1]; siRNA 1.6 mg/kg i.p. daily for 3 days, then multiple low-dose STZ, day 7) | immunohistochemical staining for iNOS in islets ([1]; siRNA i.p., STZ, end of the study) | islet number and insulin staining of pancreata (immunohistochemistry) ([1]; siRNA i.p., multiple low-dose STZ) | glucose tolerance in IPGTT ([1]; siRNA i.p., multiple low-dose STZ, compared to si-Control-injected mice) | reduction of β cell mass compared to non-STZ-treated controls ([1]; siRNA i.p., multiple low-dose STZ, morphometry of insulin-stained sections) | iNOS induction in islets by immunoblot ([1]; siRNA i.p., 24 h after the first STZ treatment) | STZ-induced glucose intolerance (GTT), osmotic pump GC7 ([1]; GC7 40 μg/kg/h continuous s.c. osmotic pump, started 3 days before STZ) | STZ-induced glucose intolerance (GTT), intraperitoneal GC7 ([1]; GC7 4 mg/kg/day i.p. bolus, started 3 days before STZ) | β cell mass (histomorphometry) ([1]; GC7-injected animals, STZ) | iNOS production in islets ([1]; GC7-treated pump animals, STZ) | TUNEL+ cells per islet ([1]; GC7 plus STZ, STZ alone 0.78) | serum IL-6 levels ([1]; concurrent treatment with STZ) | insulin secretion at 0 and 30 min during glucose challenge ([1]; pump-implanted animals, STZ) | Nos2 transcript levels (Nos2 mRNA) |
| --- | --- | --- | --- | --- | --- | --- | --- | --- | --- | --- | --- | --- | --- | --- |
| 5′-AACGGAAUGACUUCCAGCUGA-3′ (siSTABLE modification, further chemistry not given here) [si-eIF5A] | 101 mg/dL | undetectable | relatively preserved islet number and insulin granularity | improved glucose tolerance | 1.4 fold | attenuated | – | – | – | – | – | – | – | – |
| NCCCCCCCN=C(N)N [GC7] | – | – | – | – | – | – | near-complete protection | near-complete protection | full preservation of mass | suppression of iNOS production | 0.42 | did not affect IL-6 levels | normal insulin secretory response | remained disproportionately elevated |
